# Results taken from patent publication US20030187267A1, “Novel 1,2,3,4-tetrahydroisoquinoline, their preparation method and their use as fungicides” (priority 2000, published 2003).
# System: Candida Albicans 44858
# Experiment: Antifungal activity in mice infected intravenously with Candida Albicans 44858 (dead mice counted)
# Format: in vivo
# Conditions: female mice, 106 CFU per mouse into the tail vein
# Protocol: Antifungal activity of the product of Example 1 or product P.
# Female mice were used weighing 18 to 22 g. A quantity of Candida Albicans 44858 at a rate of 10^6 CFU per mouse (CFU: colony forming unit) is administered into the vein of the tail. The mice are separated into 5 batches of 5 mice and they are treated as follows:
# group 1: the mice are treated with product P 25 mg/kg by oral route
# group 2: the mice are treated with product P by intraperitoneal route at a rate of 25 mg/kg
# group 3: the mice are treated with fluconazole (25 mg/kg by oral route).
# group 4: the mice are treated with fluconazole (25 mg/kg by intraperitoneal route).
# group 5: the mice receive no antifungal treatment.
# For a period of 22 days, the dead mice are counted.
smiles,measurement,setting,value
"CCC(C)n1ncn(-c2ccc(/C=C/CN3CCc4cc(OC[C@H]5CO[C@](Cn6ccnc6)(c6ccc(Cl)cc6Cl)O5)ccc4C3)cc2)c1=O (relative stereo) [Example 1, 2,4-dihydro-4-[4-[3-[6-[[(cis)-2-(2,4-dichlorophenyl)-2-(1H-imidazol-1-ylmethyl)-1,3-dioxolan-4-yl]-methoxy]-1,2,3,4-tetrahydro-2-isoquinolinyl]-1(E)-propenyl]-phenyl]-2-(1-methylpropyl)-3H-1,2,4-triazol-3-one.]",Antifungal activity (dead mice counted for a period of 22 days),25 mg/kg by intraperitoneal route 1 hour after infection,excellent activity
same,Antifungal activity (dead mice counted for a period of 22 days),25 mg/kg by oral route 1 hour after infection,excellent activity
